pIC50: −log10 of the molar value.

T1 sequence (Q9GZT9 whole entry): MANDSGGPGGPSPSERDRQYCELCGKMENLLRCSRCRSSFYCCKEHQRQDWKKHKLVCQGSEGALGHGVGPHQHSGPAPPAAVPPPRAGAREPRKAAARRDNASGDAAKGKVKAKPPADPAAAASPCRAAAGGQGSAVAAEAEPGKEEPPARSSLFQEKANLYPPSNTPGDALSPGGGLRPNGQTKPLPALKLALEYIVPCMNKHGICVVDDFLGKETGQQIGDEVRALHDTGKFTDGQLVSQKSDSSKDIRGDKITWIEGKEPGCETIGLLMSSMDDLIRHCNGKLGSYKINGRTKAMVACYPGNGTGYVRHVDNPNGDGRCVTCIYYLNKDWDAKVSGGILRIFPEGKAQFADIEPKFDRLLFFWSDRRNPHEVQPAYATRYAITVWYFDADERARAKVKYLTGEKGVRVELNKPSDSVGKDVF

This experiment concerns the target T1, human HIF-PHD2 (Homo sapiens, UniProt Q9GZT9).
T1 construct: FLAG-tagged full length PHD2 expressed in and purified from baculovirus-infected Sf9 cells; FLAG; made in house; host or cells: baculovirus-infected Sf9 cells
As to the kind of experiment: HIF-PHD2 inhibition assay (hydroxylation of HIF-1α peptide, time resolved fluorescence). The format is biochemical. To be noted: FLAG-tagged full length PHD2; 0.2 μM 2-oxoglutarate, 0.5 μM HIF-1α peptide. On the procedure: To each well of a 384-well plate, 1 μL of test compounds in DMSO (final concentration ranging from 0.3 nM to 10 uM) were added into 20 μl of assay buffer (50 mM Tris pH 7.4/0.01% Tween-20/0.1 mg/ml bovine serum albumin/10 μM ferrous sulfate/1 mM sodium ascorbate/20 μg/ml catalase) containing 0.15 μg/ml FLAG-tagged full length PHD2 expressed in and purified from baculovirus-infected Sf9 cells. […] Purif.
`O=C(O)CNC(=O)c1c(O)c2c(n(Cc3ccc4ccccc4c3)c1=O)CCOC2` [Example 21, 2-(4-hydroxy-1-(naphthalen-2-ylmethyl)-2-oxo-2,5,7,8-tetrahydro-1H-pyrano[4,3-b]pyridine-3-carboxamido)acetic acid] gave a pIC50 of 7.42.
Consider `N#Cc1ccc(Cn2c3c(c(O)c(C(=O)NCC(=O)O)c2=O)CCOC3)cc1F` [Example 61, 2-(1-(4-cyano-3-fluorobenzyl)-4-hydroxy-2-oxo-2,5,6,8-tetrahydro-1H-pyrano[3,4-b]pyridine-3-carboxamido)acetic acid], for which the pIC50 is 7.65.
Take `N#Cc1ccc(Cn2c3c(c(O)c(C(=O)NCC(=O)O)c2=O)CCOC3)c(F)c1` [Example 44, 2-(1-(4-cyano-2-fluorobenzyl)-4-hydroxy-2-oxo-2,5,6,8-tetrahydro-1H-pyrano[3,4-b]pyridine-3-carboxamido)acetic acid]: the pIC50 is 7.84.
Consider `O=C(O)CNC(=O)c1c(O)c2c(n(Cc3ccc(Cl)cc3F)c1=O)CCOC2` [Example 18, 2-(1-(4-chloro-2-fluorobenzyl)-4-hydroxy-2-oxo-2,5,7,8-tetrahydro-1H-pyrano[4,3-b]pyridine-3-carboxamid)acetic acid], for which the pIC50 is 7.72.
Take `O=C(O)CNC(=O)c1c(O)c2c(n(Cc3ccc(-c4ccc(C(F)(F)F)cc4)cc3)c1=O)COCC2` [Example 65, 2-(4-Hydroxy-2-oxo-1-((4′-(trifluoromethyl)-[1,1′-biphenyl]-4-yl)methyl)-2,5,6,8-tetrahydro-1H-pyrano[3,4-b]pyridine-3-carboxamido)acetic acid]: the negative logarithm of the IC50 (pIC50) is 7.63.
The compound `O=C(O)CNC(=O)c1c(O)c2c(n(Cc3ccc(F)cc3F)c1=O)COCC2` [Example 38, 2-(1-(2,4-difluorobenzyl)-4-hydroxy-2-oxo-2,5,6,8-tetrahydro-1H-pyrano[3,4-b]pyridine-3-carboxamido)acetic acid] gave a negative-log IC50 (pIC50) of 7.62. The pIC50 values of the last two compounds are within 0.2 log units of each other.
As for `CNC(=O)c1ccc(Cn2c3c(c(O)c(C(=O)NCC(=O)O)c2=O)CCOC3)cc1` [Example 55, 2-(4-hydroxy-1-(4-(methylcarbamoyl)benzyl)-2-oxo-2,5,6,8-tetrahydro-1H-pyrano[3,4-b]pyridine-3-carboxamido)acetic acid], the figure is 7.67; as for `COc1ccc(Cn2c3c(c(O)c(C(=O)NCC(=O)O)c2=O)COCC3)cc1` [Example 6, 2-(4-hydroxy-1-(4-methoxybenzyl)-2-oxo-2,5,7,8-tetrahydro-1H-pyrano[4,3-b]pyridine-3-carboxamido)acetic acid], 7.81.
As to `CN1Cc2c(c(O)c(C(=O)NCC(=O)O)c(=O)n2Cc2ccc(C#N)cc2F)CC1=O` [Example 70, 2-(1-(4-Cyano-2-fluorobenzyl)-4-hydroxy-7-methyl-2,6-dioxo-1,2,5,6,7,8-hexahydro-1,7-naphthyridine-3-carboxamido)acetic acid], the pIC50 was 7.98.
The compound `NC(=O)c1ccc(Cn2c3c(c(O)c(C(=O)NCC(=O)O)c2=O)CCOC3)cc1` [Example 64, 2-(1-(4-Carbamoylbenzyl)-4-hydroxy-2-oxo-2,5,6,8-tetrahydro-1H-pyrano[3,4-b]pyridine-3-carboxamido)acetic acid] showed a negative logarithm of the IC50 (pIC50) of 7.51.
`Cc1cc(Cn2c3c(c(O)c(C(=O)NCC(=O)O)c2=O)COCC3)ccc1C#N` [Example 28, 2-(1-(4-Cyano-3-methylbenzyl)-4-hydroxy-2-oxo-2,5,7,8-tetrahydro-1H-pyrano[4,3-b]pyridine-3-carboxamido)acetic acid]: the negative-log IC50 (pIC50) is 7.84.
As to `O=C(O)CNC(=O)c1c(O)c2c(n(Cc3cc(F)c(F)cc3F)c1=O)CCOC2` [Example 24, 2-(4-Hydroxy-2-oxo-1-(2,4,5-trifluorobenzyl)-2,5,7,8-tetrahydro-1H-pyrano[4,3-b]pyridine-3-carboxamido)acetic acid], the pIC50 was 7.77.
As for `O=C(O)CNC(=O)c1c(O)c2c(n(-c3ccc(OC(F)(F)F)cc3)c1=O)CCOC2` [Example 36, 2-(4-Hydroxy-2-oxo-1-(4-(trifluoromethoxy)phenyl)-2,5,7,8-tetrahydro-1H-pyrano[4,3-b]pyridine-3-carboxamido)acetic acid], the figure is 7.01; as for `Cn1ccc(Cn2c3c(c(O)c(C(=O)NCC(=O)O)c2=O)COCC3)n1` [Example 27, 2-(4-Hydroxy-1-((1-methyl-1H-pyrazol-3-yl)methyl)-2-oxo-2,5,7,8-tetrahydro-1H-pyrano[4,3-b]pyridine-3-carboxamido)acetic acid], 7.49; as for `N#Cc1ccc(-c2ccc(Cn3c4c(c(O)c(C(=O)NCC(=O)O)c3=O)CCOC4)cc2)cc1` [Example 69, 2-(1-((4′-cyano-[1,1′-biphenyl]-4-yl)methyl)-4-hydroxy-2-oxo-2,5,6,8-tetrahydro-1H-pyrano[3,4-b]pyridine-3-carboxamido)acetic acid], 7.79.
On to `O=C(O)CNC(=O)c1c(O)c2c(n(Cc3ccc(C(F)(F)F)cc3)c1=O)CN(Cc1ccccc1)CC2` [Example 80, 2-(7-Benzyl-4-hydroxy-2-oxo-1-(4-(trifluoromethyl)benzyl)-1,2,5,6,7,8-hexahydro-1,7-naphthyridine-3-carboxamido)acetic acid], for which the pIC50 was 7.49.
`COc1ccc(Cn2c3c(c(O)c(C(=O)NCC(=O)O)c2=O)COCC3)cn1` [Example 30, 2-(4-Hydroxy-1-((6-methoxypyridin-3-yl)methyl)-2-oxo-2,5,7,8-tetrahydro-1H-pyrano[4,3-b]pyridine-3-carboxamido)acetic acid] had a pIC50 of 7.76. This pIC50 is 0.27 log units higher than that of the compound before.
For the compound `Cn1c2c(c(O)c(C(=O)NCC(=O)O)c1=O)COCC2` [Example 22, 2-(4-hydroxy-1-methyl-2-oxo-2,5,7,8-tetrahydro-1H-pyrano[4,3-b]pyridine-3-carboxamido)acetic acid], the pIC50 was 7.25.
Regarding `O=C(O)CNC(=O)c1c(O)c2c(n(Cc3ccc(F)cc3)c1=O)CCOC2` [Example 9, 2-(1-(4-fluorobenzyl)-4-hydroxy-2-oxo-2,5,7,8-tetrahydro-1H-pyrano[4,3-b]pyridine-3-carboxamido)acetic acid], the pIC50 is 7.86.
As for `O=C(O)CNC(=O)c1c(O)c2c(n(Cc3cc(F)c(F)cc3F)c1=O)COCC2` [Example 43, 2-(4-hydroxy-2-oxo-1-(2,4,5-trifluorobenzyl)-2,5,6,8-tetrahydro-1H-pyrano[3,4-b]pyridine-3-carboxamido)acetic acid], the pIC50 was 7.58.
Compound `NC(=O)c1ccc(Cn2c3c(c(O)c(C(=O)NCC(=O)O)c2=O)COCC3)cc1` [Example 34, 2-(1-(4-Carbamoylbenzyl)-4-hydroxy-2-oxo-2,5,7,8-tetrahydro-1H-pyrano[4,3-b]pyridine-3-carboxamido)acetic acid] gave a negative-log IC50 (pIC50) of 7.53.
Compound `CC(C)c1ccc(Cn2c3c(c(O)c(C(=O)NCC(=O)O)c2=O)COCC3)cc1` [Example 12, 2-(4-hydroxy-1-(4-isopropylbenzyl)-2-oxo-2,5,7,8-tetrahydro-1H-pyrano[4,3-b]pyridine-3-carboxamido)acetic acid] showed a pIC50 of 7.90.
In the case of `CN1Cc2c(c(O)c(C(=O)NCC(=O)O)c(=O)n2Cc2ccc(S(C)(=O)=O)cc2)CC1=O` [Example 71, 2-(4-hydroxy-7-methyl-1-(4-(methylsulfonyl)benzyl)-2,6-dioxo-1,2,5,6,7,8-hexahydro-1,7-naphthyridine-3-carboxamido)acetic acid], the pIC50 was 7.72. The pIC50 values of the last two compounds are within 0.2 log units of each other.
`N#Cc1ccc(Cn2c3c(c(O)c(C(=O)NCC(=O)O)c2=O)CCOC3)cc1` [Example 40, 2-(1-(4-cyanobenzyl)-4-hydroxy-2-oxo-2,5,6,8-tetrahydro-1H-pyrano[3,4-b]pyridine-3-carboxamido)acetic acid] had a pIC50 of 7.66.
As to `CN1CCc2c(c(O)c(C(=O)NCC(=O)O)c(=O)n2Cc2ccc(C(F)(F)F)cc2)C1` [Example 81, 2-(4-Hydroxy-6-methyl-2-oxo-1-(4-(trifluoromethyl)benzyl)-1,2,5,6,7,8-hexahydro-1,6-naphthyridine-3-carboxamido)acetic acid], the pIC50 is 7.34.
`COc1ccc(Cn2c3c(c(O)c(C(=O)NCC(=O)O)c2=O)CCOC3)cc1` [Example 51, 2-(4-hydroxy-1-(4-methoxybenzyl)-2-oxo-2,5,6,8-tetrahydro-1H-pyrano[3,4-b]pyridine-3-carboxamido)acetic acid] gave a pIC50 of 7.52.
The compound `N#Cc1ccc(Cn2c3c(c(O)c(C(=O)NCC(=O)O)c2=O)COCC3)cc1` [Example 5, 2-(1-(4-Cyanobenzyl)-4-hydroxy-2-oxo-2,5,7,8-tetrahydro-1H-pyrano[4,3-b]pyridine-3-carboxamido)acetic acid] showed a pIC50 of 7.86.
Take `CC(C)Oc1ccc(Cn2c3c(c(O)c(C(=O)NCC(=O)O)c2=O)COCC3)cc1` [Example 13, 2-(4-hydroxy-1-(4-isopropoxybenzyl)-2-oxo-2,5,7,8-tetrahydro-1H-pyrano[4,3-b]pyridine-3-carboxamido)acetic acid]: the pIC50 is 7.69.
As for `O=C(O)CNC(=O)c1c(O)c2c(n(Cc3nc(-c4ccccc4)cs3)c1=O)C1CCC2C1` (stereo not shown) [Example 85, 2-(-4-hydroxy-2-oxo-1-((4-phenylthiaozl-2-yl)methyl)-1,2,5,6,7,8-hexahydro-5,8-methanoquinoline-3-carboxamido)acetic acid], the figure is 7.21; as for `Cn1ccc(Cn2c3c(c(O)c(C(=O)NCC(=O)O)c2=O)CCOC3)n1` [Example 50, 2-(4-hydroxy-1-((1-methyl-1H-pyrazol-3-yl)methyl)-2-oxo-2,5,6,8-tetrahydro-1H-pyrano[3,4-b]pyridine-3-carboxamido)acetic acid], 7.26; as for `CS(=O)(=O)c1ccc(Cn2c3c(c(O)c(C(=O)NCC(=O)O)c2=O)COCC3)cc1` [Example 11, 2-(4-hydroxy-1-(4-(methylsulfonyl)benzyl)-2-oxo-2,5,7,8-tetrahydro-1H-pyrano[4,3-b]pyridine-3-carboxamido)acetic acid], 7.69.

One may read the pIC50 as the IC50 on a negative log10 scale, so that one unit is a factor of ten. Lower therefore signals a high IC50.

These data come from patent publication US10000501B2, “Inhibitors of HIF prolyl hydroxylase” (MERCK SHARP & DOHME CORP., priority 2014, dated 2018).
